Data reported in US11242337B2, “Compounds useful for treating gastrointestinal tract disorders” (Ardelyx, Inc., priority 2017, dated 2022).

Molecular target: T1, NHE3 (Homo sapiens, UniProt P48764)
T1 construct: expressed in transfected cells
T1 sequence (P48764 26-834): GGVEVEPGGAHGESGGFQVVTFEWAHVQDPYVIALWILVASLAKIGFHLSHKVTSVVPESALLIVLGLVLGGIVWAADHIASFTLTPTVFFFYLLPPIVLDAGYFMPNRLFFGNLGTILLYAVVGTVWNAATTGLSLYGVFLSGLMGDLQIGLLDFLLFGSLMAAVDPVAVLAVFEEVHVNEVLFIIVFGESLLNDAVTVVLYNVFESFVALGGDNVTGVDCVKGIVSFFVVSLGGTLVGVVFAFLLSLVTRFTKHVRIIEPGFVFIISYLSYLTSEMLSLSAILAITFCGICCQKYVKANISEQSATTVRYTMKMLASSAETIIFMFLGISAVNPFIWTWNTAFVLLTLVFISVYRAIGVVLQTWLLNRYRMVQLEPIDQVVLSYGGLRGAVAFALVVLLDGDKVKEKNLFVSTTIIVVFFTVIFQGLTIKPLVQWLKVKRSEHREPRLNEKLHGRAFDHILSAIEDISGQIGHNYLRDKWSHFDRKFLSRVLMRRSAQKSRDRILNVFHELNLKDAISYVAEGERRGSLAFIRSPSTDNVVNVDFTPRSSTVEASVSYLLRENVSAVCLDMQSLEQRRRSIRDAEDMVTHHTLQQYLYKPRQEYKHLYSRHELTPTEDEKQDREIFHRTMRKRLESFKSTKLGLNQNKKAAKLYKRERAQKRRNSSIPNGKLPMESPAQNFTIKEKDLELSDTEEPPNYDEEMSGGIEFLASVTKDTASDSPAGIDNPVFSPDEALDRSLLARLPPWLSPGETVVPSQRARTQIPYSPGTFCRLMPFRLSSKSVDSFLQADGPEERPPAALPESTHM
T1 sequence (Q99653 2-195 partner limits assumed): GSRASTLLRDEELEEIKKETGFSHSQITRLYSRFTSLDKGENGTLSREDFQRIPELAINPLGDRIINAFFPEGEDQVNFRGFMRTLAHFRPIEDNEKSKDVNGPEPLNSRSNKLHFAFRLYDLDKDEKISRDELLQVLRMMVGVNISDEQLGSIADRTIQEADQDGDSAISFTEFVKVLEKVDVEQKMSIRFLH
Assay: Cell-based assay of NHE-3 activity (pre-incubation inhibition), human
Details: human Preincubation; for pIC50: 0-30 μM test compound
Outline: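 PS120 fibroblasts stably expressing human NHE3 and NHERF2, loaded 30 min at 37 °C with 5 μM BCECF-AM in NH4Cl buffer, then acidified 10 min at room temperature in Na+-free buffer with 0–30 μM compound. Initial rate of BCECF fluorescence ratio change (FLIPR) per minute taken as Na+/H+ activity.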

| SMILES | % inhibition | pIC50 |
| --- | --- | --- |
| Cc1cc(Cl)cc2c1C[C@H](N1CCC[C@@H](N(C)C)C1)[C@H]2Oc1ccc(S(=O)(=O)NCCOCCOCCNC(=O)NCCCCNC(=O)NCCOCCOCCNS(=O)(=O)c2ccc(O[C@H]3c4cc(Cl)cc(C)c4C[C@@H]3N3CCC[C@@H](N(C)C)C3)c(F)c2)cc1F [Example 30, 3-[2-(2-[2-[(4-[[(1S,2S)-6-Chloro-2-[(3R)-3-(dimethylamino)piperidin-1-yl]-4-methyl-2,3-dihydro-1H-inden-1-yl]oxy]-3-fluorobenzene)sulfonamido]ethoxy]ethoxy)ethyl]-1-[4-([[2-(2-[2-[(4-[[(1S,2S)-6-chloro-2-[(3R)-3-(dimethylamino)piperidin-1-yl]-4-methyl-2,3-dihydro-1H-inden-1-yl]oxy]-3-fluorobenzene)sulfonamido]ethoxy]ethoxy)ethyl]carbamoyl]amino)butyl]urea; bis(trifluoroacetic acid)] | C (>70%) | C (NHE3 pIC50 > 7) |
| Cc1cc(O[C@H]2c3cc(Cl)cc(Cl)c3C[C@@H]2N(C)C)c(F)cc1S(=O)(=O)NCCOCCOCCNC(=O)NCCCCNC(=O)NCCOCCOCCNS(=O)(=O)c1cc(F)c(O[C@H]2c3cc(Cl)cc(Cl)c3C[C@@H]2N(C)C)cc1C [Example 88, 3-[2-(2-[2-[(4-[[(1S,2S)-4,6-Dichloro-2-(dimethylamino)-2,3-dihydro-1H-inden-1-yl]oxy]-5-fluoro-2-methylbenzene)sulfonamido]ethoxy]ethoxy)ethyl]-1-[4-([[2-(2-[2-[(4-[[(1S,2S)-4,6-dichloro-2-(dimethylamino)-2,3-dihydro-1H-inden-1-yl]oxy]-5-fluoro-2-methylbenzene)sulfonamido]ethoxy]ethoxy)ethyl]carbamoyl]amino)butyl]urea] | C (>70%) | C (NHE3 pIC50 > 7) |
| Cc1cc(S(=O)(=O)N[C@@H]2CCN(CCOCCNC(=O)NCCCCNC(=O)NCCOCCN3CC[C@@H](NS(=O)(=O)c4ccc(O[C@H]5c6cc(Cl)cc(Cl)c6C[C@@H]5N(C)C)c(C)c4)C3)C2)ccc1O[C@H]1c2cc(Cl)cc(Cl)c2C[C@@H]1N(C)C [Example 53, 3-(2-[2-[(3R)-3-[(4-[[(1S,2S)-4,6-Dichloro-2-(dimethylamino)-2,3-dihydro-1H-inden-1-yl]oxy]-3-methylbenzene)sulfonamido]pyrrolidin-1 yl]ethoxy]ethyl)-1-(4-[[(2-[2-[(3R)-3-[(4-[[(1S,2S)-4,6-dichloro-2-(dimethylamino)-2,3-dihydro-1H-inden-1-yl]oxy]-3-methylbenzene)sulfonamido]pyrrolidin-1-yl]ethoxy]ethyl)carbamoyl]amino]butyl)urea] | C (>70%) | C (NHE3 pIC50 > 7) |

Continued, values first:

| % inhibition | pIC50 | SMILES |
| --- | --- | --- |
| C (>70%) | C (NHE3 pIC50 > 7) | N#Cc1cc(Cl)cc2c1C[C@H](N1CCNCC1)[C@H]2Oc1ccc(S(=O)(=O)N2CCC(NC(=O)CCCNC(=O)NCCCCNC(=O)NCCCC(=O)NC3CCN(S(=O)(=O)c4ccc(O[C@H]5c6cc(Cl)cc(C#N)c6C[C@@H]5N5CCNCC5)cc4)CC3)CC2)cc1 [Example 120, N^1,N^18-Bis(1-([4-([(1S,2S)-6-chloro-4-cyano-2-(piperazin-1-yl)-2,3-dihydro-1H-inden-1-yl]oxy)phenyl]sulfonyl)piperidin-4-yl)-6,13-dioxo-5,7,12,14-tetraazaoctadecanediamide] |
| C (>70%) | C (NHE3 pIC50 > 7) | C[C@@H]1CN([C@H]2Cc3c(C#N)cc(Cl)cc3[C@@H]2Oc2ccc(S(=O)(=O)N[C@H]3CCN(CCOCCNC(=O)NCCCCNC(=O)NCCOCCN4CC[C@H](NS(=O)(=O)c5ccc(O[C@H]6c7cc(Cl)cc(C#N)c7C[C@@H]6N6CCN[C@H](C)C6)cc5)C4)C3)cc2)CCN1 [Example 132, 4-([(1S,2S)-6-Chloro-4-cyano-2-[(R)-3-methylpiperazin-1-yl]-2,3-dihydro-1H-inden-1-yl]oxy)-N—[(S)-1-(20-[(S)-3-([4-([(1S,2S)-6-chloro-4-cyano-2-[(R)-3-methylpiperazin-1-yl]-2,3-dihydro-1H-inden-1-yl]oxy)phenyl]sulfonamido)pyrrolidin-1-yl]-7,14-diaxo-3,18-dioxa-5,8,13,15-tetraazaicosyl)pyrrolidin-3-yl]benzenesulfonamide; bis(trifluoroacetic acid)] |
| C (>70%) | C (NHE3 pIC50 > 7) | C[C@@H]1CN([C@H]2Cc3c(C#N)cc(Cl)cc3[C@@H]2Oc2ccc(S(=O)(=O)N[C@@H]3CCN(CCOCCNC(=O)NCCCCNC(=O)NCCOCCN4CC[C@@H](NS(=O)(=O)c5ccc(O[C@H]6c7cc(Cl)cc(C#N)c7C[C@@H]6N6CCN[C@H](C)C6)cc5)C4)C3)cc2)CCN1 [Example 133, 4-([(1S,2S)-6-Chloro-4-cyano-2-[(R)-3-methylpiperazin-1-yl]-2,3-dihydro-1H-inden-1-yl]oxy)-N—[(R)-1-(20-[(R)-3-([4-([(1S,2S)-6-chloro-4-cyano-2-[(R)-3-methylpiperazin-1-yl]-2,3-dihydro-1H-inden-1-yl]oxy)phenyl]sulfonamido)pyrrolidin-1-yl]-7,14-dioxo-3,18-dioxa-6,8,13,15-tetraazaicosyl)pyrrolidin-3-yl]benzenesulfonamide; bis(trifluoroacetic acid)] |
| C (>70%) | C (NHE3 pIC50 > 7) | N#Cc1cc(Cl)cc2c1C[C@H](N1CCNCC1)[C@H]2Oc1ccc(S(=O)(=O)N[C@H]2CCN(C(=O)CCCNC(=O)NCCCCNC(=O)NCCCC(=O)N3CC[C@H](NS(=O)(=O)c4ccc(O[C@H]5c6cc(Cl)cc(C#N)c6C[C@@H]5N5CCNCC5)cc4)C3)C2)cc1 [Example 143, 4-([(1S,2S)-6-Chloro-4-cyano-2-(piperazin-1-yl)-2,3-dihydro-1H-inden-1-yl]oxy)-N—[(S)-1-(18-[(S)-3-([4-([(1S,2S)-6-chloro-4-cyano-2-(piperazin-1-yl)-2,3-dihydro-1H-inden-1-yl]oxy)phenyl]sulfonamido)pyrrolidin-1-yl]-6,13,18-trioxo-5,7,12,14-tetraazaoctadecanoyl)pyrrolidin-3-yl]benzenesulfonamide] |
